Experimental data published in patent publication US20200246465A1, “USE OF TRYPTOPHAN DERIVATIVES FOR PROTEIN FORMULATIONS” (Genentech, Inc., priority 2015, published 2020).
Several values for one entry are separate records, joined by “and”; a condition that tells them apart may be missing. Identical values can stand only once.

Experiments:
Format in all cases: physicochemical
[1] = Fenton stress of NAT in formulation buffer, RP-HPLC at 240 nm; settings: for % NAT degradation ± 1SD: Fenton stress (0.2 mM FeCl2, 10 ppm H2O2, 3 hours 40° C.)
Procedure: FeCl2 (Sigma Aldrich, 98% purity) and H2O2 (Sigma Aldrich, 30% w/w in H2O) were added to a final concentration of 0.2 mM and 10 ppm, respectively, to a histidine-containing buffer at pH 5.5 with 0.3 mM NAT ±5 mM L-Met, pH 5.5. Upon addition of H2O2 the vials were vortexed briefly and incubated for 3 hours at 40° C. Oxidation was quenched by the addition of L-Met to a final concentration of 100 mM. After the addition of the quenching solution, the final NAT concentration was 0.2 mM.
(§1) NAT and NAT degradants were separated on an Agilent 1200 series HPLC or Waters H Class UPLC using an Agilent ZORBAX SB-C18 3.5 μm, 4.6×75 mm reverse phase column. Column temperature was held at 30±0.8° C. by a thermostat controller. The gradients used for HPLC and UPLC are listed in Tables 5 and 6, respectively (note: the shorter gradient on the UPLC was designed to accommodate earlier retention times and the column re-equilibration period was elongated due to the larger range of system pressure at a flow rate of 1.0 ml/min). NAT degradation products were detected at 240 nm. The standard bandwidth setting (8 nm for Agilent 1200 HPLC, 4.8 nm for Waters H-Class) was used for analysis on each instrument. The autosampler was maintained at 5±3° C. 10 nmol of NAT and/or NAT degradants (50 μl for most samples) was injected on to the column for analysis. The chromatograms were processed using Dionex Chromeleon software.
(§2) Total NAT degradation for each sample was calculated by comparing NAT peak area to the control sample for each stress model (Table 7). NAT degradation ranged from 3% (thermal stress, non-His buffer) to 83% (ICH light stress, His buffer).

[2] = AAPH oxidation stress of NAT in formulation buffer, RP-HPLC at 240 nm; settings: for % NAT degradation ± 1SD: AAPH stress (1.0 mM AAPH, 40° C. 16 hours)
Procedure: AAPH (Calbio Chem, 99.8%) was used to model oxidative degradation by alkyl peroxides. Histidine and non-histidine buffers at pH 5.5 containing 0.3 mM NAT ±5 mM L-Met pH 5.5 were treated with an aqueous AAPH solution to a final concentration of 1.0 mM AAPH. An equivalent volume of Milli-Q H2O was added to control samples. Samples were incubated at 40° C. for 16 hours. Oxidation was quenched by the addition of L-Met to a final concentration of 20 mM. After the addition of the quenching solution, the final NAT concentration was 0.2 mM. NAT and NAT degradants were separated on an Agilent 1200 series HPLC or Waters H Class UPLC using an Agilent ZORBAX SB-C18 3.5 μm, 4.6×75 mm reverse phase column. Column temperature was held at 30±0.8° C. by a thermostat controller. The gradients used for HPLC and UPLC are listed in Tables 5 and 6, respectively (note: the shorter gradient on the UPLC was designed to accommodate earlier retention times and the column re-equilibration period was elongated due to the larger range of system pressure at a flow rate of 1.0 ml/min). NAT degradation products were detected at 240 nm. The standard bandwidth setting (8 nm for Agilent 1200 HPLC, 4.8 nm for Waters H-Class) was used for analysis on each instrument. The autosampler was maintained at 5±3° C. 10 nmol of NAT and/or NAT degradants (50 μl for most samples) was injected on to the column for analysis. The chromatograms were processed using Dionex Chromeleon software. Protein-containing samples were diluted in guanidine and the proteins removed via ultra-filtration (Amicon spin filters with a 30 kDa molecular weight cut-off). […] Using the final sample preparation conditions, recovery of NAT was 94-99% for three tested antibody/antibody derivatives and recovery of NAT degradants was 98-100% (data not shown). […] Total NAT degradation for each sample was calculated by comparing NAT peak area to the control sample for each stress model (Table 7). NAT degradation ranged from 3% (thermal stress, non-His buffer) to 83% (ICH light stress, His buffer). The impact of low concentrations of protein on AAPH-induced NAT degradation was also analyzed. Two antibodies (protein1 and protein2) were diluted to 1.0 mg/ml in buffer and formulated with 0.3 mM NAT (˜45:1 mol NAT:mol protein). Upon AAPH stress, the level of NAT degradation was largely consistent between protein-containing and protein-free solutions (˜40% loss in NAT peak area), as was the distribution of oxidant species (FIG. 11).

[3] = ICH light stress of NAT in formulation buffer, RP-HPLC at 240 nm; settings: for % NAT degradation ± 1SD: ICH light stress (1.2 million lux-hours, 200 W-hours/m^2 UV, 24 hours), 0.3 mM NAT
Procedure: A light box [Atlas SunTEST CPS+ Xenon Light Box (Chicago, Ill.)] designed to conduct the drug substance/product photostability test recommended by the International Conference on Harmonization (ICH) Expert Working Group was utilized to provide light stress to NAT-containing samples. The ICH photostability test is defined as 1.2 million lux-hours of white light and 200 W-hours/m^2 of UV light; the light box was programmed to provide the stress over a period of 24 hours. Histidine and non-histidine buffers containing 0.3 mM NAT ±5 mM L-Met were aliquoted into sterile glass vials (1 ml/vial). The vials were capped and placed on their side in the light box to maximize exposure to the light source. A control sample for each buffer condition was covered in foil and placed in the light box for the duration of exposure. For consistency with the other stress models, prior to HPLC analysis, the buffer solutions were diluted with Milli-Q H2O to a final NAT concentration of 0.2 mM.
as §1, §2

[4] = Thermal stress of NAT in formulation buffer, RP-HPLC at 240 nm; settings: elevated temperature (40° C., 5 months), His buffer, 1.0 mM NAT
Procedure: Histidine and non-histidine buffers containing 1.0 mM NAT were aliquoted into sterile glass vials (5 ml/vial, 6 vials per buffer). Vials were stored in a dark box at the indicated temperatures during the stress and transferred to −70° C. for storage until analysis (timepoints taken monthly for five months). Initial time points for samples of each buffer solution were transferred immediately to −70° C. Prior to analysis, the samples were thawed and diluted with Milli-Q H2O to a final NAT concentration of 0.2 mM.
as §1, with “10 nmol of NAT and/or NAT degradants (50 μl for most samples) was injected on to the column for analysis. The chromatograms were processed using Dionex Chromeleon software.” left out
Total NAT degradation for each sample was calculated by comparing NAT peak area to the control sample for each stress model (Table 7). […]

[5] = His + 5 mM Met buffer, 0.3 mM NAT

For `CC(=O)N[C@@H](Cc1c[nH]c2ccccc12)C(=O)O` [NAT, N-acetyl-tryptophan], the “improvement to NAT stability by 5 mM Met (total NAT loss)” value (“improvement … (total NAT loss)” for short) ([1]; Fenton model) was 25%, the “% NAT degradation ± 1SD” value [1, 5] was 15.2 ± 0.7 (n = 3) % and the “% NAT degradation ± 1SD” value ([1]; His buffer pH 5.5, 0.3 mM NAT) was 40 ± 3 (n = 3) %. For the same molecule, the “NAT degradation (loss)” value ([1]; Fenton stress, under all tested conditions) was 30-40% and 33-41%, the “improvement … (total NAT loss)” value ([2]; AAPH model, depending on buffer) was 4-8% and the “% NAT degradation ± 1SD” value [2, 5] was 34.7 ± 0.1 (n = 3) %. For the same molecule, the “% NAT degradation ± 1SD” value ([2]; His buffer pH 5.5, 0.3 mM NAT) was 39.8 ± 0.2 (n = 3) %, the “% NAT degradation ± 1SD” value ([2]; Non-His + 5 mM Met buffer, 0.3 mM NAT) was 32.9 ± 0.5 (n = 3) % and the “% NAT degradation ± 1SD” value ([2]; Non-His buffer pH 5.5, 0.3 mM NAT) was 41.1 ± 0.7 (n = 3) %. For the same molecule, the “NAT degradation (loss)” value ([2]; AAPH stress, under all tested conditions) was 30-40% and 33-41%, the “loss in NAT peak area” value ([2]; AAPH stress, 0.3 mM NAT in histidine-based buffer, protein-free or with 1.0 mg/ml protein1 or protein2) was ~40% and the “% NAT degradation ± 1SD” value ([3]; His + 5 mM Met buffer) was 17.6 ± 0.7 (n = 2) %. The “% NAT degradation ± 1SD” value ([3]; His buffer) was 83.4 ± 0.2 (n = 2) %, the “% NAT degradation ± 1SD” value ([3]; Non-His + 5 mM Met buffer) was 18 ± 2 (n = 2) % and the “% NAT degradation ± 1SD” value ([3]; Non-His buffer) was 28% and 28.0 ± 0.1 (n = 2) %. The “improvement … (total NAT loss)” value ([3]; ICH light stress conditions) was 10-16% and the “% NAT degradation ± 1SD” value [4] was 11.1 (n = 1) %.
